Reference: article PMC5992482 (Molecular Therapy. Nucleic Acids, 2018)
pIC50: −log10 of the molar value.

Target: T1, Nicotinamide N-methyltransferase (NNMT) (Homo sapiens, UniProt P40261)
T1 sequence (P40261 1-264): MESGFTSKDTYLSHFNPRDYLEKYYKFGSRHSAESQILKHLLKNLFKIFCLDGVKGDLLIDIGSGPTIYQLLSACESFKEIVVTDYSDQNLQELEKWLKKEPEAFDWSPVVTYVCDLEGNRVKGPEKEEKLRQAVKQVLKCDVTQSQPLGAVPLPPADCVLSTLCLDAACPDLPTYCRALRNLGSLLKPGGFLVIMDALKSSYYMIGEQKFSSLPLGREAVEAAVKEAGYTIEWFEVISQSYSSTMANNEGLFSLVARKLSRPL
Test: in vitro enzyme activity assay with purified NNMT
Assay type: biochemical

## C=C(C)[C@@]12O[C@@]3(/C=C/C=C/CCCCC)O[C@@H]1[C@@H]1[C@@H]4O[C@]4(CO)[C@@H](O)[C@]4(O)C(=O)C(C)=C[C@H]4[C@@]1(O3)[C@H](C)[C@H]2OC(C)=O [YD, yuanhuadine]
  pIC50: 6.40
